Laboratory results taken from publication PMC8286840, “Identifying SARS-CoV-2 antiviral compounds by screening for small molecule inhibitors of Nsp3 papain-like protease” (Biochemical Journal, 2021).
Counter-ions that a name gives are not always drawn. Like-named read-outs stand apart in the source and are kept apart here.

Assays:
[1] = molecular target: T1, SARS-CoV-2 PLpro (nsp3 1564–1878) (Severe acute respiratory syndrome coronavirus 2, UniProt P0DTD1); assay: biochemical; parameters: FRET-quenched peptide (Pro3) cleavage by PLpro, 10 min pre-incubation, slope over 20 min, normalised to no-compound control; details: high concentration screen, read-out: % of control remaining
[2] = molecular target: T1, SARS-CoV-2 PLpro (nsp3 1564–1878); assay: biochemical; parameters: FRET-quenched peptide (Pro3) cleavage by PLpro, 10 min pre-incubation, slope over 20 min, normalised to no-compound control; details: low concentration screen, read-out: % of control remaining

O=C(O)[C@@H]1C[C@H](C(=O)O)N1 [cis-Azetidine-2,4-dicarboxylic acid]
remaining activity at 3.75 µM ([1]; Well no.=20): 99.7% | remaining activity at 1.25 µM ([2]; Well no.=20): 101%

CO[C@H](C(=O)[C@@H](O)[C@@H](C)O)[C@@H]1Cc2cc3cc(O[C@H]4C[C@@H](O[C@@H]5C[C@@H](O)[C@H](O)[C@@H](C)O5)[C@H](O)[C@@H](C)O4)c(C)c(O)c3c(O)c2C(=O)[C@H]1O[C@H]1C[C@@H](O[C@@H]2C[C@@H](O)[C@@H](O[C@@H]3C[C@](C)(O)[C@H](O)[C@@H](C)O3)[C@@H](C)O2)[C@H](O)[C@@H](C)O1 [Mithramycin A]
remaining activity at 3.75 µM ([1]; Well no.=3411): 101% | remaining activity at 1.25 µM ([2]; Well no.=3411): 96.9%

O=C(NCCNCC(O)COc1ccc(O)cc1)N1CCOCC1 (centres unmarked) [Xamoterol hemifumarate]
remaining activity at 3.75 µM ([1]; Well no.=1436): 95.1% | remaining activity at 3.75 µM ([1]; Well no.=1741): 103% | remaining activity at 1.25 µM ([2]; Well no.=1436): 95.5% | remaining activity at 1.25 µM ([2]; Well no.=1741): 102%

CNC(=C[N+](=O)[O-])NCCSCc1ccc(CN(C)C)o1 [Ranitidine hydrochloride]
remaining activity at 3.75 µM ([1]; Well no.=1304): 101% | remaining activity at 1.25 µM ([2]; Well no.=1304): 101%

CCCCC1=NC2(CCCC2)C(=O)N1Cc1ccc(-c2ccccc2-c2nnn[nH]2)cc1 [2-butyl-3-{[2'-(1H-tetraazol-5-yl)[1,1'-biphenyl]-4-yl]methyl}-1,3-diazaspiro[4.4]non-1-en-4-one]
remaining activity at 3.75 µM ([1]; Well no.=5468): 104% | remaining activity at 1.25 µM ([2]; Well no.=5468): 98%

CC1=C(C(=O)OC(C)C)C(c2cccc([N+](=O)[O-])c2)C(C(=O)OC2CN(C(c3ccccc3)c3ccccc3)C2)=C(N)N1 (centres unmarked) [Azelnidipine]
remaining activity at 3.75 µM ([1]; Well no.=5275): 93.3% | remaining activity at 1.25 µM ([2]; Well no.=5275): 97.2%

COc1ccc(/C=C/C(=O)Nc2ccccc2C(=O)O)cc1OC [Tranilast]
remaining activity at 3.75 µM ([1]; Well no.=1519): 94.6% | remaining activity at 3.75 µM ([1]; Well no.=1807): 96.1% | remaining activity at 3.75 µM ([1]; Well no.=6317): 97.4% | remaining activity at 1.25 µM ([2]; Well no.=1519): 95.4% | remaining activity at 1.25 µM ([2]; Well no.=1807): 96.3% | remaining activity at 1.25 µM ([2]; Well no.=6317): 104%

NC1(C(=O)O)CC1 [1-Aminocyclopropanecarboxylic acid hydrochloride]
remaining activity at 3.75 µM ([1]; Well no.=341): 102% | remaining activity at 1.25 µM ([2]; Well no.=341): 100%

CCCCC/C=C\C\C=C/C=C/C=C/[C@@H](SC[C@H](N)C(=O)O)[C@@H](O)CCCC(=O)O [Leukotriene E4]
remaining activity at 3.75 µM ([1]; Well no.=4433): 99.5% | remaining activity at 1.25 µM ([2]; Well no.=4433): 99.2%

CN(C)CC/C=C1/c2ccccc2Sc2ccc(Cl)cc21 [Chlorprothixene hydrochloride]
remaining activity at 3.75 µM ([1]; Well no.=45): 90.5% | remaining activity at 1.25 µM ([2]; Well no.=45): 89.3%

OC[C@@H](O)CN1CCN(c2ccccc2)CC1 [Levodropropizine]
remaining activity at 3.75 µM ([1]; Well no.=6189): 82.2% | remaining activity at 1.25 µM ([2]; Well no.=6189): 97.3%

CCCCC/C=C\C/C=C\C/C=C\C/C=C\CCCC(N)=O [Arachidonamide]
remaining activity at 3.75 µM ([1]; Well no.=4336): 104% | remaining activity at 1.25 µM ([2]; Well no.=4336): 108%

C[C@H](O)C(=O)C1=Nc2c(nc(N)[nH]c2=O)NC1 [Sepiapterin]
remaining activity at 3.75 µM ([1]; Well no.=1183): 96.3% | remaining activity at 1.25 µM ([2]; Well no.=1183): 99.7%

COC[C@H]1OC(=O)c2coc3c2[C@@]1(C)C1=C(C3=O)[C@@H]2CCC(=O)[C@@]2(C)C[C@H]1OC(C)=O [Wortmannin]
remaining activity at 3.75 µM ([1]; Well no.=3232): 102% | remaining activity at 1.25 µM ([2]; Well no.=3232): 99.9%

CNC(=O)c1ccc(C)c(-n2c(C)cc(OCc3ccc(F)cc3F)c(Br)c2=O)c1 [PH-797804]
remaining activity at 3.75 µM ([1]; Well no.=4695): 104% | remaining activity at 1.25 µM ([2]; Well no.=4695): 104%

OC[C@H]1O[C@@H](n2cnc3c(O)nc(O)nc32)[C@H](O)[C@@H]1O [Xanthosine]
remaining activity at 3.75 µM ([1]; Well no.=7397): 107% | remaining activity at 1.25 µM ([2]; Well no.=7397): 106%

CC(C)(C)n1nc(-c2ccc(Cl)cc2)c2c(N)ncnc21 [PP 2 - 3-(4-chlorophenyl) 1-(1,1-dimethylethyl)-1H-pyrazolo[3,4-d]pyrimidin-4-amine]
remaining activity at 3.75 µM ([1]; Well no.=2428): 101% | remaining activity at 1.25 µM ([2]; Well no.=2428): 98.1%

CC(CN1c2ccccc2Sc2ccccc21)N(C)C (centres unmarked) [Promethazine.HCl]
remaining activity at 3.75 µM ([1]; Well no.=1640): 97.2% | remaining activity at 1.25 µM ([2]; Well no.=1640): 96.2%

C=C1C(=O)O[C@@H]2C[C@@]3(C)CCCC(=C)[C@@H]3C[C@H]12 [Isoalantolactone]
remaining activity at 3.75 µM ([1]; Well no.=6728): 93.6% | remaining activity at 1.25 µM ([2]; Well no.=6728): 97.1%
